Measured values reported in US6689764B1, “Treatment of angiogenesis dependent conditions with dextrin sulphate” (priority 1999, dated 2004).
“Also recorded” adds a separate entry of the source.

Tests used:
[1] = test system: human umbilical vein endothelial cells; experiment: Endothelial microtubule formation assay on Matrigel; assay type: cell-based; conditions: HUVEC on Matrigel, scored at 18 h
Method: FIG. 6: The photomicrographs show endothelial microtubule formation in the presence of sulphated dextrins (×40 magnification). A visual analogue scale was used to determine the extent of tube formation and scored on a scale from 0 (all cells remain single) to 4 (all cells involved in tubular structures) as previously described (ref: 1,14). Space bar=100 microns.
The endothelial microtuble formation assay was performed by isolating human umbilical vein endothelial cells from umbilical cords within 6 h of delivery by caesarean section. The umbilical vein was cannulated and 0.1% collagenase in phosphate buffered saline was introduced and incubated for 20 minutes. The endothelial cells liberated by the collagenase were obtained by washing the umbilical vein with Medium 199. The cells were washed three times with Medium 199 and then cultured in tissue culture flasks coated with fibronectin. […]
Aliquots of Matrigel were dispensed into 35 mm diameter tissue culture dishes on ice and then incubated at 37° C. for 10 min to allow the gel to set. […] At various time points from 8-24 hours, the plates were examined and scored using a published scheme from 0-4, where 0=all adherent cells remain single, and 4=all adherent cells involved in tubular structures. New vessel formation was quantified blind by three different observers at 18 h. […]

[2] = test system: human placental blood vessels; experiment: Placental blood vessel in fibrin clot in vitro angiogenesis assay; assay type: cell-based; conditions: 100 μg/ml; for new vessel formation compared to media alone: up to day 22
Method: Compounds were tested at a final concentration of 100 μg/ml. The degree of new vessel formation was quantified blind twice a week using a visual analog scale in which 0=no growth, 1=minimal new vessel formation, 2=significant new vessel formation, and 3=dense new vessel formation. An angiogenesis score was derived from each count by dividing the total score (i.e. the sum of all the wells) by the maximum possible score and then expressing the result as a percentage. This graph is representative of 3 experiments with a total of 20 wells/plate/experiment for each compound tested.
Blood vessels (approximately 1-2 mm diameter) were excised from the apical surface of human placentas within 6 h of an elective Caesarean birth. Use of the placentas for these studies were approved by the Ethics Committee of Hammersmith Hospitals Trust, London. The blood vessels were placed in Hank's balanced salt solution and cut into 1-2 mm fragments using fine dissecting forceps and iridectomy scissors. Residual clots were removed and the blood vessels then soaked in Hank's balanced salt solution.
The effect of each compound on new blood vessel formulation was determined by culturing the blood vessels within a fibrin clot in 24-well tissue culture plates. Thirty μl of bovine thrombin (50 NIH U/ml in 0.15 M sodium chloride) was added to each well followed by 1 ml/well of 3 mg/ml bovine fibrinogen in Medium 199. The thrombin and fibrinogen were rapidly mixed and a blood vessel fragment placed in the centre of the well. Fibrin gel formation occurred rapidly and left the vessel suspended within the gel. One ml/well of Medium 199 supplemented with 20% foetal calf serum, 250 IU/ml penicillin and 250 U/ml streptomycin was then added to each well. ε-arnino-n-caproic acid was also added (300 μg/ml) for the first 4 days and twice weekly thereafter (50 μg/ml) in order to prevent dissolution of the fibrin clot. The vessels were cultured at 37° C. in a humidified incubator for 25 days with the media being changed twice weekly.
The degree of new vessel formation was quantified blind twice a week by three different observers using a visual analogue scale in which 0=no growth, 1=very little new vessel formation, 2=significant new vessel formation and 3=dense new vessel formation. An angiogenesis score was derived from the counts undertaken for each well by dividing the total score by the maximum score possible and then expressing the result as a percentage. On each of 3 separate occasions, each compound was tested in 20 replicate wells. […] Some of the fibrin clots were fixed overnight in 10% formalin, paraffin embedded, sectioned for histology and then stained for the endothelial cell markers Factor VIII and CD31. Results are expressed as the mean±sem. A students t-test was used to determine the level of significance.

[3] = test system: KSY-1 cell line; experiment: Proliferation with bFGF or VEGF, [3H]-thymidine incorporation; assay type: cell-based, human
[4] = test system: HUVECs; experiment: Proliferation induced by bFGF or VEGF, [3H]-thymidine incorporation; assay type: cell-based, human; conditions: 100 μg/ml, bFGF 10 ng/ml or VEGF 20 ng/ml
Method: FIG. 3: Graph to show the effect of sulphated dextrins on the proliferation of HUVECs induced by bFGF or VEGF was measured using a [^3H]-thymidine incorporation assay.
For these experiments, HUVECs (5×10^3/well) were suspended in Medium M199 containing 10% FCS, 2 mM L-glutamine, 100 Iu/ml penicillin and 0.1 mg/ml streptomycin. After 24 h, the media was replaced with fresh media containing either D2S (100 μg/ml) or D6S (100 μg/ml) for 1 h following which either bFGF (10 ng/ml) or VEGF (20 ng/ml, Preprotech, Rocky Hill, N.J.) were added. […] [^3H]-thymidine (1 mCi/ml, Amersham Pharrnacia, Bucks, UK) was added 48 h later and the cells cultured for a further 16 h. Cells were harvested using an automated Betaplate 96 well harvester (Wallac Oy, Turku, Finland) and the radioactivity counted using a Betaplate liquid scintillation counter.

[5] = test system: HUVEC cell line; experiment: TCS Biologicals Human Angiogenesis Model (tubule formation); assay type: cell-based
Method: The effect of sulphated dextrin on vessel formation of the HUVEC cell line was performed by the use of the TCS Biologicals Human Angiogenesis Model. The assay is supplied as a growing culture of the HUVEC cell line together with culture matrix and additional human cells present (the exact nature of the cells is not known) at the earliest stages of tubule formation in a 24-well format. The positive control reagent was a standard stock solution of VEGF and the negative control was Suramin. After removing the well seals, the cultures were examined for cell morphology to confirm their viability.
Growth medium was provided with the kit and was used to make up the sulphated dextrin at concentrations ranging from 0-1000 μg/ml. The existing medium was aspirated from the wells and replaced with medium containing the dextrin sulphate concentrations in a 0.5ml volume. This was placed at 37° C., in a 5% CO2 containing atmosphere. This was repeated on days 4, 7 and 9.
Between days 7-11 cultures were fixed by the enclosed fixative and stained with the mouse monoclonal anti-PECAM-1 antibody at a 1:4000 dilution (present in blocking buffer). 0.5ml of diluted antibody was added per well and incubated for 60 minutes at 37° C. The secondary antibody (goat anti-mouse lgG alkaline phosphatase conjugate) was diluted 1:500 in blocking buffer and added to the wells after washing for 60 minutes at 37° C. After washing the plate the substrate was prepared; BCIP/NBT tablets were dissolved in distilled water and added to the wells. Following incubation for 5-10 minutes the wells were washed and were imaged using the Leica Qwin image analysis software package.

[6] = test system: HPB-ALL cells; experiment: [3H]-dextrin 2-sulphate binding to HPB-ALL cells
[7] = test system: HeLa cells; experiment: [3H]-dextrin 2-sulphate binding to HeLa cells; conditions: n=9
[8] = test system: peripheral blood mononuclear cells and monocyte-derived-macrophages; experiment: D2S cell surface binding to peripheral blood mononuclear cells and monocyte-derived-macrophages; conditions: PBMC and monocyte-derived-macrophages, read-out: dissociation constant
Method: Our previous studies of peripheral blood mononuclear cells and monocyte-derived-macrophages have shown that D2S binds to the cell surface in a specific and saturable manner with a dissociation constant of 82±14 nM.

[9] = test system: HIV-1; conditions: intra-peritoneal route, patients with late stage AIDS
[10] = test system: Kaposi's sarcoma; experiment: Phase I clinical trial in patients with late stage AIDS: Kaposi's sarcoma; assay type: in vivo, human
[11] = Accumulation in cells of the peritoneal cavity and peripheral blood of treated patients; assay type: in vivo, human
[12] = test system: KSY-1 cells
Method: (§1) Human umbilical vein endothelial cells (HUVEC's) were also harvested from umbilical cords by digestion with collagenase type II and cultured in 1% gelatin coated tissue culture flasks in Medium 199 supplemented with 20% fetal bovine serum, 100 IU/ml penicillin, 0.1 mg/ml streptomycin, 2mM L-glutamine, 10 U/ml heparin and 20 μg/ml endothelial cell growth supplement. The KS Y-1 cell line which was established from the pleural effusion of a patient with AIDS-associated Kaposi's sarcoma was also studied. It was CD34 and CD31 positive confirming it as being of endothelial origin.
(§2) The effect of sulphated dextrins on the growth of HUVEC's and KSY-1 cells which were being cultured in the presence of basic fibroblast growth factor (bFGF) or vascular endothelial growth factor (VEGF) was also determined.

[13] = test system: HUVEC's
Method: as §1, §2

dextrin 2,6-sulphate
anti-angiogenic activity (microtubule formation) [1]: more than that seen with D2S but less than that seen with D6S

dextrin 6-sulphate
new vessel formation compared to media alone [2]: reduced the rate of new vessel formation | new vessel formation compared to media alone ([2]; listed as Dextrin 6-sulphate): significant decrease in new vessel formation | effect on proliferation with bFGF or VEGF [3]: do not interfere | effect on proliferation induced by bFGF or VEGF [4]: do not interfere | effect on proliferation induced by bFGF or VEGF ([4]; listed as D6S): no significant effect

VEGF
branch points, elevation ([5]; positive control reagent): 131% | tubule number, elevation compared to vehicle control ([5]; positive control reagent): 174%

dextrin 2-sulphate
Bmax [6]: 4.8±0.3 pmol/10^6 cells | Kd ([6]; specific and saturable binding, read-out: dissociation constant (Kd)): 82 ± 14 nM | Bmax [7]: 4.1±0.2 pmol/10^6 cells | Kd [7]: 107 ± 12 nM | Kd [8]: 82 ± 14 nM | new blood vessel formation score (scale 0-3) ([2]; day 22): 1 | new vessel formation compared to media alone [2]: reduced the rate of new vessel formation; also recorded: significant reduction in the number of new vessels | effect on proliferation with bFGF or VEGF [3]: do not interfere | viral load of HIV-1 [9]: significant and sustained fall | effect on proliferation induced by bFGF or VEGF [4]: do not interfere | effect on proliferation induced by bFGF or VEGF ([4]; listed as D2S): no significant effect | Kaposi's sarcoma clinical response [10]: clinical regression of Kaposi's sarcoma in three patients | accumulation in cells of treated patients [11]: accumulated in the peritoneal macrophages and mesothelial cells

Cc1ccc(C(=O)Nc2ccc(S(=O)(=O)O)c3cc(S(=O)(=O)O)cc(S(=O)(=O)O)c23)cc1NC(=O)c1cccc(NC(=O)Nc2cccc(C(=O)Nc3cc(C(=O)Nc4ccc(S(=O)(=O)O)c5cc(S(=O)(=O)O)cc(S(=O)(=O)O)c45)ccc3C)c2)c1 [Suramin, reference compound]
branch points, inhibition ([5]; negative control reagent): 98% | tubule number, inhibitory effect compared to vehicle control ([5]; negative control reagent): 51%

dextrin
cell viability (Trypan blue exclusion) [12]: > 95% | rate of cell division ([12]; KSY-1 cells, 7 day period, twice weekly cell counts): Neither dextrin nor sulphated dextrins affected | new vessel formation compared to media alone [2]: no difference | cell viability (Trypan blue exclusion) [13]: > 95% | rate of cell division ([13]; HUVEC's, 7 day period, twice weekly cell counts): Neither dextrin nor sulphated dextrins affected
